Laboratory results taken from patent publication US20050089495A1, “Transdermal transport of compounds” (priority 2001, published 2005).
Where a name gives a salt, the structure may show the parent alone.

Legend:
[1] = Transdermal delivery of testosterone and testosterone phosphate in the hairless rat model; total testosterone in plasma; details: topical carrier cream; for concentration of testosterone in blood after application: 1 μg
[2] = females using the patches; cited from earlier work
rats = test: Efficacy of atropine phosphate compared to atropine sulfate: heart rate after intravenous administration; format: in vivo; details: for heart rate after administration: IV 2 mg/kg in phosphate buffer, baseline approx. 350 bpm
Method: The efficacy of atropine phosphate when compared to atropine sulfate was investigated in this example.
Atropine sulfate and atropine phosphate formulated in phosphate buffer and given intravenously (IV) each to two rats at 2 mg/kg resulted similar increases in heart rates.
For example, the baseline heart rate of a rat was approx. 350 bpm and increased to 450 bpm within 15 minutes after administration of atropine (either atropine phosphate or atropine sulfate). Approximately two hours later, normal heart rates were restored. This is regarded as a significant change in pulse rate.

[3] = Transdermal delivery of estradiol and estradiol phosphate in the hairless rat model; total estrogens RIA in plasma
[4] = Acute transdermal penetration of 3H-Estradiol and 3H-Estradiol Phosphate in the hairless rat model; format: in vivo, female albino hairless rats; details: 24-hour period

Row | Molecule | concentration of testosterone in blood after application [1] | time until normal heart rates were restored (rats; IV 2 mg/kg) | heart rate after administration (rats) [bpm] | other results
1 | C[C@]12CC[C@H]3[C@@H](CCC4=CC(=O)CC[C@@]43C)[C@@H]1CC[C@@H]2O [T, Testosterone] | increased |  |  | maximum concentration of total testosterone in plasma (mean±SD) ([1]; 1 μg on about 4 cm^2 dorsal skin, baseline t=0 subtracted): 30.90 ± 11.00 pg/mL
2 | C[C@]12CC[C@@H]3c4ccc(O)cc4CC[C@H]3[C@@H]1CC[C@@H]2O [E, Estradiol] |  |  |  | females reporting skin irritation [2]: up to 17%
3 | CN1[C@@H]2CC[C@H]1CC(OC(=O)C(CO)c1ccccc1)C2.O=P(O)(O)O (stereo partly drawn) [atropine phosphate] |  | Approximately two | 450 | effect on pulse rate (rats; IV 2 mg/kg): effective to increase pulse rate
4 | C[C@]12CC[C@@H]3c4ccc(O)cc4CC[C@H]3[C@@H]1CC[C@@H]2OP(=O)(O)O [EP, Estradiol Phosphate] |  |  |  | plasma concentration of the hormone compared to the E treatment ([3]; equivalent doses applied, 24-hour period): at least twice; concentration of estradiol in blood versus estradiol application ([3]; over a 24-hour period, P<0.01 at 2, 4 and 16 hours): consistently higher; levels in the epidermis and dermis [4]: Higher levels
5 | CN1[C@@H]2CC[C@H]1C[C@@H](OC(=O)C(CO)c1ccccc1)C2 (stereo partly drawn) [atropine sulfate, reference compound] |  | Approximately two | 450 | 
6 | Testosterone Phosphate [TP] | increased |  |  | 
